For 81 compounds, viability results are on record in article PMC12040169 (PLOS Biology, 2025).

As a reminder, the viability is a read-out of living cells in per cent, often relative to untreated cells.

The nature of this data set: in vitro. The conditions noted are these: human, hela cells, % viability.

Molecules are shown by their SMILES.

As for `COc1cc(NC(=O)c2ccc3c(c2)C(=O)N(Cc2ccco2)C3=O)c(C(=O)O)cc1OC` [CBK267436], the viability at 28.5 h, 10 µM was 105%. For the compound `N#Cc1c(C(F)(F)F)cc(-c2ccc(Cl)cc2)nc1SCC(=O)O` [CBK131885], the viability at 28.5 h, 10 µM was 97.5%.

Take `CCn1cc(C(=O)N2CCC(C(=O)OC)CC2)c(=O)c2ccc(C)nc21` [CBK305848]: the viability at 28.5 h, 10 µM was 110%. On to `CCCC1=NNC(=O)C1Cc1c(F)cccc1Cl` (stereo not drawn) [CBK067753], for which the viability at 28.5 h, 10 µM worked out at 88.8%. `CCN1CCN(C(=O)c2cccc(N(C)C)c2)C(Cc2ccc(-c3ccncc3)cc2)C1=O` (stereo not drawn) [CBK285813]: the viability at 28.5 h, 10 µM turned out to be 101%. Consider `Cc1cc(C)c(S(=O)(=O)Nc2nnc(C(F)(F)F)s2)c(C)c1` [CBK045507], for which the viability at 28.5 h, 10 µM turned out to be 99.7%.

In the case of `N#CCCn1cc(C(=O)n2nnc3ccccc32)c(-c2cc3ccccc3o2)n1` [CBK268073], the viability at 28.5 h, 10 µM was 103%. As for `CN1CCN(CCC(=O)N/N=C/c2ccccc2O)CC1` [CBK261497], the viability at 28.5 h, 10 µM was 93.1%. Under `CC(C)N1CCC(N(C)Cc2c[nH]nc2C(C)(C)C)CC1` [CBK283002] stands 92.9%; under `O=C1CCC(=O)N1CCOc1nccnc1OC1CCN(Cc2ccc([N+](=O)[O-])cc2)CC1` [CBK084343], 95.7%; under `CCC(NC(=O)C1(Cn2ccnc2)CC1)c1ncccc1C` (stereo not drawn) [CBK307046], 119%. Take `COc1ccccc1CC(C)NC(=O)CCn1ccc2ccncc21` (stereo not drawn) [CBK285175]: the viability at 28.5 h, 10 µM is 93.8%.

Take `COc1cc(NS(=O)(=O)c2ccc(NC(=O)c3c(C)noc3C)cc2)nc(OC)n1` [CBK268151]: the viability at 28.5 h, 10 µM turned out to be 103%. On to `CC(C)c1cccc(-n2cc(O)c(C(=O)NCCCn3cccn3)n2)c1` [CBK305360], for which the viability at 28.5 h, 10 µM is 113%.

`O=C1N(CN2CCN(c3cccc(C(F)(F)F)c3)CC2)c2ccccc2C12OCCCO2` [CBK294461]: the viability at 28.5 h, 10 µM was found to be 99%. With `Cc1ccc(C2=CCN(CC(=O)Nc3nccs3)CC2)o1` [CBK283557], the viability at 28.5 h, 10 µM amounted to 93.7%. With `O=c1[nH]c2ccccc2n1CCCSc1nnc2c(n1)[nH]c1ccccc12` [CBK264917], the viability at 28.5 h, 10 µM was determined as 118%. Turning to `O=C(CC(CN1CCCCC1)C(=O)O)Nc1cccc(O)c1` (stereo not drawn) [CBK286788], the viability at 28.5 h, 10 µM is 114%. In the case of `COc1cc2c(cc1OC)CN(C(=O)CSc1nc(-c3cccnc3)ccc1C#N)CC2` [CBK267464], the viability at 28.5 h, 10 µM worked out at 69.8%. As for `O=C(Nc1cccc2[nH]ccc12)c1ccc(Cl)cc1` [CBK159632], the figure is 91.7%. On to `Cc1ccc(C)n1-c1ccc(O)c(C(=O)O)c1` [CBK116381], for which the viability at 28.5 h, 10 µM came to 94.2%. For the compound `O=C(NCc1ccc(Cl)c(Cl)c1)N1CCN(c2cc(C(F)(F)F)ccn2)CC1` [CBK156434], the viability at 28.5 h, 10 µM stood at 94.3%. With `COc1ccc(N(CC(=O)Nc2ccc3c(c2)oc2ccccc23)S(=O)(=O)c2ccccc2)cc1` [CBK264814], the viability at 28.5 h, 10 µM was 104%. As for `CCCS(=O)(=O)c1ccc(NC(=O)Nc2ccc(Cl)cc2Cl)cc1` [CBK008564], the viability at 28.5 h, 10 µM was determined as 76.1%.

`N#CC1=C(SCC(=O)Nc2cccc3ccccc23)NC(=O)CC1c1ccco1` (stereo not drawn) [CBK265793]: the viability at 28.5 h, 10 µM is 101%. As for `C[C@@H]1CN(Cc2ccccc2)C[C@H](C)N1` [CBK001569], the figure is 86.1%; as for `Cc1c(C(N)=O)sc2ncn(CCc3ccccc3)c(=O)c12` [CBK268492], 103%.

Turning to `O=C(Cn1cc(-c2ccc(CN3CCCCC3)cc2)nn1)NCc1ccc(OC(F)F)cc1` [CBK167514], the viability at 28.5 h, 10 µM came out at 96%. Turning to `Cc1cc(Cl)ccc1OCC(=O)Nc1ccc(O)cc1C(=O)O` [CBK131706], the viability at 28.5 h, 10 µM stood at 86%. On to `Cc1ccc(-c2cc(C(=O)N3CCOCC3)c3cc(Br)ccc3n2)cc1` [CBK066901], for which the viability at 28.5 h, 10 µM came out at 86.4%. Under `Nc1ncc(-c2occc2C=O)nc1NC1CCOCC1` [CBK063789] stands 103%. As to `CS(=O)(=O)c1ccc(-c2cnc3nc(N)ccc3c2)cc1` [CBK061916], the viability at 28.5 h, 10 µM was 92.9%.

For `CC[C@H]1CN(C(=O)c2ccnc(Cl)c2)CC[C@H]1CC(=O)O` [CBK289139], the viability at 28.5 h, 10 µM was determined as 92%. Consider `C[C@@H](Nc1cncc(-c2ccc(F)cc2F)n1)c1ccccc1` [CBK065676], for which the viability at 28.5 h, 10 µM stood at 87%. `CCNc1cc(-c2cccc(N)c2)ncn1` [CBK037731]: the viability at 28.5 h, 10 µM came to 96.4%.

`Cc1ccc(-c2oncc2C(=O)NCc2cccs2)cc1` [CBK153679]: the viability at 28.5 h, 10 µM was determined as 95.7%. Regarding `CCNC(=O)CN(CC)S(=O)(=O)c1cccc(C#N)c1` [CBK306481], the viability at 28.5 h, 10 µM was found to be 90.1%.

Take `CC(NC(=O)N1CCNC(=O)C1)c1ccccc1` (stereo not drawn) [CBK155877]: the viability at 28.5 h, 10 µM stood at 96%.

On to `CCOc1ccc(-c2noc(CCC(=O)NC)n2)cc1OC` [CBK269226], for which the viability at 28.5 h, 10 µM amounted to 86.4%.

On to `O=C(N[C@H]1CO[C@H]2[C@@H]1OC[C@@H]2n1nnnc1Oc1ccc(-n2ccnc2)cc1)c1ccco1` [CBK289486], for which the viability at 28.5 h, 10 µM turned out to be 91.9%.

Turning to `COc1ncccc1C(=O)N1CCc2ccccc2C1` [CBK200336], the viability at 28.5 h, 10 µM amounted to 96.9%.

For `COc1ccc2[nH]cc(CC(=O)N3CCCC4(CCN(Cc5ccccc5)C4)C3)c2c1` (stereo not drawn) [CBK136883], the viability at 28.5 h, 10 µM is 93.5%. As to `COc1cccc(C(=O)N2CCC(NC(=O)c3csc(-c4ccccc4)n3)CC2)c1` [CBK155030], the viability at 28.5 h, 10 µM came out at 90.4%. For the compound `O=C(O)C[C@]1(C(=O)NC2CCCCCC2)CC(/C=C/c2ccccc2)=NO1` [CBK286732], the viability at 28.5 h, 10 µM amounted to 75.9%.

As to `Cc1cc(C)c2c(n1)sc1c(N3CCC(C(=O)O)CC3)ncnc12` [CBK300512], the viability at 28.5 h, 10 µM came to 83.1%.

For `CCCCNC(=O)CSc1ncccc1C(=O)NCc1cccnc1` [CBK071590], the viability at 28.5 h, 10 µM came to 91%. `CCCn1nc(C)c(-c2cncn2CCCN2CCCCC2)c1C` [CBK281496]: the viability at 28.5 h, 10 µM worked out at 100%.

Regarding `CCc1nc2c(OCC3CCCCC3)cccn2c1N(C=O)Cc1ccc(OC)cc1` [CBK147811], the viability at 28.5 h, 10 µM stood at 100%.

Regarding `CN(Cc1ccncc1)C(=O)c1cccc(S(=O)(=O)NCC2CC2)c1` [CBK305365], the viability at 28.5 h, 10 µM came to 95.6%. In the case of `CCCNc1cncc(-c2cccnc2)n1` [CBK037921], the viability at 28.5 h, 10 µM came to 99.1%. Consider `CC(CCCC(C)(C)O)CC1OCCC(C)O1` (stereo not drawn) [CBK019986], for which the viability at 28.5 h, 10 µM came to 115%. Take `CC(=O)c1ccccc1NC(C#N)c1ccccc1` (stereo not drawn) [CBK057758]: the viability at 28.5 h, 10 µM was 99.6%. For the compound `Cc1cc(C)n(C(C)CC(=O)NCC(C)N2CCC(C)CC2)n1` (stereo not drawn) [CBK282104], the viability at 28.5 h, 10 µM turned out to be 108%. Take `O=C(O)c1cc(Br)cc2c3c([nH]c12)CCCC3` [CBK100973]: the viability at 28.5 h, 10 µM was 99.7%. As for `Cc1cc2c(o1)CCc1sc(N(C)C(=O)C3CC(=O)N(C)C3)nc1-2` (stereo not drawn) [CBK283980], the figure is 75.6%.

For the compound `Nc1nnc(C2CCCCC2)s1` [CBK039123], the viability at 28.5 h, 10 µM amounted to 84.5%. For `CNC(=O)c1ccc(-c2ccc(CNC(=O)C3(c4cccc(F)c4)CCCC3)cc2)nc1C` [CBK286013], the viability at 28.5 h, 10 µM was found to be 105%. In the case of `CC(=O)OCC(=O)Nc1ccc2cc(Br)cnc2n1` [CBK063311], the viability at 28.5 h, 10 µM was 91.1%.

Turning to `C=CCNS(=O)(=O)c1ccc(NC(=O)Cc2cccc3ccccc23)cc1` [CBK269379], the viability at 28.5 h, 10 µM was 109%. Turning to `CN(c1cccc(C#N)c1)C1CCN(c2nccn(C)c2=O)C1` (stereo not drawn) [CBK304718], the viability at 28.5 h, 10 µM was found to be 105%. In the case of `c1ccc2c(-c3cn4ccnc4c(N4CCOCC4)n3)cccc2c1` [CBK037387], the viability at 28.5 h, 10 µM was 91.6%. Under `CC(CCc1ccccc1)NC(=O)CCC(=O)O` (stereo not drawn) [CBK267918] stands 86.6%; under `Cc1ccc(C)c(NC(=S)NCCc2ccc(S(N)(=O)=O)cc2)c1` [CBK264879], 100%. As for `COc1ccc(-c2csc(Nc3cccc(C(=O)O)c3)n2)cc1` [CBK286924], the figure is 86.7%; as for `O=C(c1ccco1)N1C2CCC1CC(O)(c1cccnc1F)C2` (stereo not drawn) [CBK284417], 98.6%.

Turning to `CCN(CC)c1ccc(NC(=O)c2cccc(OC)c2OC)c(C)c1` [CBK097801], the viability at 28.5 h, 10 µM was 92.2%. In the case of `CN(C)c1cccc(-c2nc(-c3cccs3)cnc2N)c1` [CBK063979], the viability at 28.5 h, 10 µM is 93.5%. Regarding `O=C(Nc1cccc2[nH]ccc12)c1cccc(F)c1Cl` [CBK159638], the viability at 28.5 h, 10 µM came out at 76.4%. Under `CC(C)(C)OC(=O)N1CCN(c2ccnc(Cl)n2)CC1` [CBK002095] stands 120%; under `c1ccc(CN2CCN(Cc3ccccc3)C2c2cccnc2)cc1` [CBK260885], 93.2%.

Turning to `O=C(NCCc1c[nH]cn1)NC12CC3CC(CC(C3)C1)C2` [CBK269880], the viability at 28.5 h, 10 µM is 86.2%.

For `Cc1ccc(NC(=O)C(=O)NCCCn2ccnc2)cc1C` [CBK264157], the viability at 28.5 h, 10 µM was found to be 98%. Consider `CC1(C)C[C@H](NC(=O)C2CC2)[C@@]2(CCC(=O)N3CCCC3)CC[C@](C)(O)C[C@@H]12` [CBK289044], for which the viability at 28.5 h, 10 µM was determined as 88.1%. As for `Nc1ncc(-c2ccsc2)nc1NCc1ccncc1` [CBK063614], the figure is 107%. Take `NC(=O)c1c(N)c(C(N)=S)n2c1CCC2` [CBK019270]: the viability at 28.5 h, 10 µM was 98.1%. As for `CCNC(=O)C1CCN(Cc2nc(-c3cc(OC)ccc3F)oc2C)C1` (stereo not drawn) [CBK307040], the viability at 28.5 h, 10 µM turned out to be 98.4%. As to `NC(=O)C1CN(C(=O)CN2CCCc3ccccc32)c2ccccc2O1` (stereo not drawn) [CBK295163], the viability at 28.5 h, 10 µM stood at 93.4%.

Regarding `CC(C)OC(=O)COc1ccc2c(=O)c(Oc3ccccc3Br)coc2c1` [CBK264226], the viability at 28.5 h, 10 µM turned out to be 94%. Under `CCCN1C(=O)c2ccc(C(=O)Nc3cc(C(=O)O)cc(C(=O)O)c3)cc2C1=O` [CBK266441] stands 97%. Regarding `CC(C)C(NC(=O)CN1CSCC1=O)c1ccc(C(C)(C)C)cc1` (stereo not drawn) [CBK297899], the viability at 28.5 h, 10 µM worked out at 88.6%. Turning to `Fc1ccc2[nH]c3c(c2c1)CCN1C(c2ccccn2)N2CCC31CC2` (stereo not drawn) [CBK284431], the viability at 28.5 h, 10 µM came out at 101%.
